# Data taken from US20240325400A1, “Composition Comprising Skin-Specific T Cell Inhibitor as Active Ingredient for Prevention or Treatment of Atopic Dermatitis” (INDUSTRY-ACADEMIC COOPERATION FOUNDATION, YONSEI UNIVERSITY, priority 2021, published 2024).
# Experiments:
# [1] = test system: cells isolated from normal skin tissue; assay: Toxicity assay using CCK-8 reagent (cell viability); format: cell-based; conditions: for cell viability: cells from normal skin tissue, overnight, CCK-8
# Protocol: Thereafter, 10 μL of Cell Counting Kit-8 reagent (Dojindo Lot. PR863) was added to each well of the 96-well plate, and after 2 hours, the safety and toxicity of the drug to the normal skin tissue were evaluated by measuring the absorbance at […].
# [2] = test system: serum total IgE; assay: Serum total IgE by ELISA in atopic dermatitis mouse model; format: in vivo
# Protocol: (§1) Then, in order to check changes in skin-specific T cells in each animal, single suspensions were prepared using the spleen, skin, and lymph nodes, and T-cells were stained using anti-CD3, anti-CD4, anti-CD8, and anti-CD45 antibodies. Flow cytometry was performed on skin-specific T cells using anti-CD69 and anti-CD103 antibodies, thereby observing the changes in number and distribution of skin-specific T cells by the application of the drug.
# (§2) Blood was collected from the mouse heart and then centrifuged at 2,500 rpm for 15 minutes, and the obtained serum was used in the experiment. Then, total IgE was measured using the ELISA MAX™ Delux Set (BioLegend, San Diego, CA, USA) kit. Dermatophagoides farinae (DF)-specific IgE was measured by ELISA using a slight modification of the previously reported method. Briefly, 100 μL of 20 μg/mL DfE in 50 mmol/L carbonate buffer (pH 9.6, Sigma, St. Louis, MO, USA) per well was plated in a 96-well microtiter plate (Corning Inc., Corning)., NY, USA) and incubated overnight at 4° C. Each well was blocked with 3% skim milk in PBS (PBST) containing 0.05% Tween 20 for 1 hour at 37° C. After washing three times with PBST, each well was incubated with a serum sample (diluted to 1:20 [V/V] in 1% BSA) overnight at 4° C. […] The absorbance was measured at 450 nm with a microplate reader (TECAN, Salzburg, Austria).
# [3] = test system: Dermatophagoides farinae (DF)-specific IgE; assay: Serum total DF-specific IgE by ELISA in atopic dermatitis mouse model; format: in vivo
# Protocol: as §1
# Blood was collected from the mouse heart, and then serum total DF-specific IgE (ng/mL) (A450) was measured in a 96-well plate (Corning Inc., Corning, NY, USA) using the ELISA MAX™ Delux Set (BioLegend, San Diego, CA, USA) kit.
# as §2, with “C.” for “C. Each well was blocked with 3% skim milk in PBS (PBST) containing 0.05% Tween 20 for 1 hour at 37° C. After washing three times with PBST, each well was incubated with a serum sample (diluted to 1:20 [V/V] in 1% BSA) overnight at 4° C.”
# [4] = test system: NC/Nga mice with induced atopic dermatitis; assay: H&E staining of skin of NC/Nga mice (eosinophil count, epidermal thickness); format: in vivo, mouse
# Protocol: as §1
# In atopic dermatitis, the eosinophil count is observed to be characteristically high, making it a representative biological indicator that can explain the immunological mechanism of atopic dermatitis. Based on this fact, hematoxylin and eosin (H&E) staining in NC/Nga mice was performed. […] In addition, when atopic dermatitis occurs, the skin thickens due to an excessive inflammatory response.
# [5] = test system: T cells in skin-draining lymph nodes; assay: FACS of T cell fractions in skin-draining lymph nodes of atopic dermatitis mouse model; format: in vivo
# Protocol: as §1
# [6] = test system: T cells in the spleen; assay: FACS of T cell fractions in spleen of atopic dermatitis mouse model; format: in vivo
# Protocol: as §1
# [7] = test system: skin-specific T cells; assay: FACS of T cell fractions in skin of atopic dermatitis mouse model; format: in vivo
# Protocol: as §1
# [8] = test system: skin-specific T cells; assay: FACS of skin-specific T cells in human skin with atopic dermatitis lesions; format: cell-based; conditions: skin immune cells and skin lesions of atopic dermatitis patients, 50 μM and 100 μM, FIG. 13
# Protocol: To verify the effect of the candidate drug on skin-specific T cells in human skin tissue, a single suspension was prepared using the skin from an atopic dermatitis patient. T cells were stained using anti-CD3, anti-CD4, anti-CD8 and anti-CD45 antibodies, and flow cytometry was performed on skin-specific T cells using anti-CD69 and anti-CD103 antibodies, which are skin TRM markers, thereby observing the changes in number and distribution of skin-specific T cells by the application of the drug.
# [9] = 100 μM, compared to 0.1% dexamethasone
substance,measurement,setting,value
idelalisib,cell viability,[1]; 50 μM,≥ 90%
same,cell viability,[1]; 100 μM,≥ 90%
same,toxicity in normal skin tissue,"[1]; CCK-8, FIG. 4",no significant toxicity
same,serum total IgE level,"[2]; 50 μM and 100 μM, ELISA, FIG. 7",decreased the total IgE level in a dose-dependent manner
same,decrease in serum total IgE level compared to positive control,[2]; [9],significantly greater
same,total DF-specific IgE level,"[3]; 50 μM and 100 μM, ELISA, FIG. 8",reduced the level of total DF-specific IgE in a dose-dependent manner
same,total DF-specific IgE level compared to positive control,[3]; [9],significantly decreased even compared to that in the 0.1% dexamethasone group
same,epidermal thickness,[4]; FIG. 9B,decreased as the concentration of idelalisib increased
same,eosinophil count,[4]; FIG. 9C,decreased depending on the idelalisib concentration
same,proportion of CD3+ T cells in skin-draining lymph nodes,"[5]; 100 μM, FIG. 10A",lowest proportion of CD3+ T cells
same,fraction of CD3+ CD4+ CD103+ T cells in skin-draining lymph nodes,"[5]; 100 μM, FIG. 10B",statistically significantly lowest
same,fraction of T cells expressing CD69 among CD3+ CD4+ T cells in skin-draining lymph nodes,[5]; FIG. 10B,tended to decrease
same,CD69+ T cells and CD103+ T cells in the spleen,[6]; FIG. 11,decreased statistically significantly
same,proportion of CD3+ and CD4+ T cells in the spleen,[6]; FIG. 11,decreased in a dose-dependent manner
same,CD69+ T cells and CD103+ T cells compared to positive control,"[6]; spleen, compared to 0.1% dexamethasone",significantly decreased in the idelalisib-treated group compared to the 0.1% dexamethasone group
same,proportions of CD3+ and CD4+ skin-specific T cells in the skin,"[7]; 50 μM and 100 μM, FIG. 12",significantly decreased in both the 50 μM and 100 μM idelalisib groups in a dose-dependent manner
same,CD69+ T cells and CD103+ T cells in the skin tissues,[7]; FIG. 12,statistically significantly decreased
same,proportions of skin-specific T cells compared to positive control,"[7]; skin, compared to 0.1% dexamethasone",significantly decreased even compared to that in the 0.1% dexamethasone-treated group
same,proportion of skin-specific T cells,[8],significantly decreased in both the 50 μM and 100 μM idelalisib groups in a dose-dependent manner
